The record followed here is EP0450066B1, “CARBOSTYRIL DERIVATIVES” (OTSUKA PHARMACEUTICAL CO., LTD., priority 1988, dated 1989).

For one series, the system named is platelets. As to the kind of experiment: Platelet aggregation inhibitory activity (method by Born et al., platelet rich plasma, ADP or collagen as inducer). The series is classed as cell-based. Particulars: rabbit PRP, 400,000 platelets/µl, 37°C. As to the method:
This sample was subjected to centrifugation at 1,100 rpm for 10 minutes to obtain a platelet rich plasma (PRP). The remaining sample was subjected to further centrifugation at 3,000 rpm for 15 minutes to obtain a platelet poor plasma (PPP).
The number of platelets in the PRP obtained above was counted by coulter Counter manufactured by Coulter Electronics Inc. Then, the PRP was diluted with the PPP so that the number of platelets in the PRP after dilution became 400,000 platelets/µl, whereby a PRP solution was prepared.
There were placed in a cell for aggregation determination, 2 µl of a solution containing a test compound at a given concentration and 200 µl of the PRP solution prepared above. The cell was heated at 37°C for 1 minute. Then, to the cell contents was added 20 µl of adenosine diphosphate (ADP, manufactured by Sigma Co.) or 20 µl of a collagen suspension (Collagen Reagent Horm, manufactured by Hormon-Chemie Co.) to induce aggregation of platelets. Then, the platelet aggregation was determined for change in transmittance, and a platelet aggregation curve was drawn.
The mixture aggregation rate (MAR) of platelets was calculated from the platelet aggregation curve, using the following formula.
In the above, MAR was calculated also for a control containing no test compound. Using this MAR as a base, the platelet aggregation inhibitions rate (%) of each test compound at various concentrations were calculated from the following formula. Inhibition rate (%) = [1-(MAR of test compound-containing PRP)/(MAR of test compound-free PRP)] x100 [formula]

For the next series, the system named is mongrel dogs. As to the kind of experiment: Increase in heart rate in anesthetized mongrel dogs. The series is classed as in vivo. Particulars: mongrel dogs under pentobarbital sodium anesthesia, artificial breathing; 30 µg/kg through cannula in femoral artery. As to the method:
Increase in heart rate as well as hypotensive activity of test compounds were measured as follows by using mongrel dogs (body weight = 10-20 kg). That is, mongrel dogs were put under anesthesia by intravenous administration of pentobarbital sodium, then fixed at the back position, and subjected to testing under artificial breathing condition. Blood pressure was measured by using a blood pressure transducer (P23XL, manufactured by Gould Statham Instruments, Inc.) via a cannula inserted into the femoral artery of the mongrel dog. Heart rate was measured via a tachometer, based on the pulse wave of the blood pressure. These signals were recorded on a thermal-pen type recorder (Recti-Horiz 8K, manufactured by Nihon Denki San-ei).
The test compounds mentioned in the Pharmacological Test I were also used as test compounds in this Test-II. Each of them was dissolved in a mixed solution of N,N'-dimenthylformamide and a physiological saline solution, and each resulting solution was administered to the test dogs through the cannulas inserted into their femoral arteries, in an amount of 30 µg (test compound)/kg of body weight. The heart rate of each dog after the administration of test compound was measured as mentioned above, whereby the maximum increase in heart rate was obtained.

Setting [1] is: aggregation induced by ADP, final concentration 7.5 µM, read-out: IC50 (µM) ADP.
[2] abbreviates: aggregation induced by collagen, final concentration 20 µg/ml, read-out: IC50 (µM) Collagen.
The mark [3] stands for this setting: Oryctolagus cuniculus, Platelet, aggregation induced by ADP, final concentration 7.5 µM, read-out: IC50 (µM) ADP.
The mark [4] stands for this setting: Oryctolagus cuniculus, Platelet, aggregation induced by collagen, final concentration 20 µg/ml, read-out: IC50 (µM) Collagen.

Where a name gives a salt, the structure may show the parent alone. Read-outs that look alike come from different tables or passages of the source.

Turning to “6-[4-(N-cyclooctylmethyl-N-diethylamidomethyl)-aminocarbonyl]butoxy}carbostyril [Test compound 19]”, the values for the IC50 in the series with platelets (setting [1]) and in the series with platelets (setting [2]) were 2.1 µM and 1.3 µM, respectively.

On to “6-[4-{N-cyclohexylmethyl-N-[2-(1-pyrrolidinyl)-ethyl]aminocarbonyl}butoxy]carbostyril [Example 1]”, for which the IC50 in the series on platelets (setting [1]) was determined as 3.4 µM; in the series on platelets (setting [2]) it was 1.1 µM.

“6-[4-{N-cyclooctylmethyl-N-[2-(2β-dimethylamino-methyl-1-pyrrolidinyl)ethyl]aminocarbonyl}butoxy]-carbostyril difumarate [Test compound 10]”: the IC50 was 3.9 µM in the series with platelets (setting [1]) and 1.8 µM in the series with platelets (setting [2]).

In the case of `O=C(CCCCOc1ccc2[nH]c(=O)ccc2c1)N(CCN1CCCCC1CO)CC1CCCCCCC1` (stereo not drawn) [Example 4], the IC50 with platelets (setting [1]) is 2.7 µM; in the series with platelets (setting [2]), 1.6 µM. Further, the “Maximum increase in heart rate (beats/min) (Administration amount = 30 µg/kg)” value in the series on mongrel dogs stood at 6 beats/min.

As to `O=C(CCCCOc1ccc2[nH]c(=O)ccc2c1)N(CCN1CCC(O)C1)CC1CCCCCCC1.O=C(O)C(=O)O` (stereo not drawn) [Example 6], the IC50 in the series with platelets (setting [1]) was 3.5 µM; in the series on platelets (setting [2]) it was 1.3 µM. Moreover, the “Maximum increase in heart rate (beats/min) (Administration amount = 30 µg/kg)” value with mongrel dogs is given as 5 beats/min.

Regarding `O=C(CCCCOc1ccc2[nH]c(=O)ccc2c1)N(CCN1CCOCC1)CC1CCCCCCC1` [Example 7], the IC50 in the series on platelets (setting [1]) turned out to be 1.5 µM; with platelets (setting [2]), 0.65 µM.

Turning to `CC1CCCC(C)N1CCN(CC1CCCCCCC1)C(=O)CCCCOc1ccc2[nH]c(=O)ccc2c1` (stereo not drawn) [Example 9], the IC50 was determined as 4.5 µM in the series with platelets (setting [1]) and 1.6 µM in the series on platelets (setting [2]). For the same compound, the “Maximum increase in heart rate (beats/min) (Administration amount = 30 µg/kg)” value with mongrel dogs is 0 beats/min.

As for `O=C(CCCCOc1ccc2[nH]c(=O)ccc2c1)N(CCn1ccnc1)CC1CCCCC1` [Example 12], the IC50 in the series with platelets (setting [1]) is 6 µM; in the series on platelets (setting [2]), 3.2 µM. Moreover, the “Maximum increase in heart rate (beats/min) (Administration amount = 30 µg/kg)” value with mongrel dogs worked out at 12 beats/min.

For `CCN(CC)CCN(CC1CCCCCCC1)C(=O)CCCCOc1ccc2[nH]c(=O)ccc2c1` [Example 16], the figures for the IC50 in the series on platelets (setting [3]) and in the series on platelets (setting [4]) were 3 µM and 1.1 µM, respectively. For the same compound, the “Maximum increase in heart rate (beats/min) (Administration amount = 30 µg/kg)” value with mongrel dogs was determined as 7 beats/min.

For the compound `CCN(CC)CCCN(CC1CCCCCCC1)C(=O)CCCCOc1ccc2[nH]c(=O)ccc2c1` [Example 17], the figures for the half-inhibitory concentration (IC50) with platelets (setting [3]) and in the series on platelets (setting [2]) were 5 µM and 2.8 µM, respectively.

With `CCN(CC)CCCCN(CC1CCCCCCC1)C(=O)CCCCOc1ccc2[nH]c(=O)ccc2c1` [Example 18], the concentration for half-maximal inhibition (IC50) was determined as 6 µM in the series on platelets (setting [3]) and 4.8 µM with platelets (setting [4]). In addition, in the series with mongrel dogs, the “Maximum increase in heart rate (beats/min) (Administration amount = 30 µg/kg)” value is 5 beats/min.

`CCN(CC)C(=O)CN(CC1CCCCCCC1)C(=O)CCCCOc1ccc2[nH]c(=O)ccc2c1` [Example 19]: the IC50 in the series on platelets (setting [3]) is 1.5 µM; in the series with platelets (setting [4]) it was 0.71 µM.

In the case of `CCN(CC)CCN(CC1CCCCCCC1)C(=O)CCCCOc1ccc2c(c1)CCC(=O)N2` [Example 20], the IC50 was 21.2 µM with platelets (setting [1]) and 7 µM in the series with platelets (setting [2]). Moreover, the “Maximum increase in heart rate (beats/min) (Administration amount = 30 µg/kg)” value in the series with mongrel dogs worked out at 4 beats/min.

As to `CCN(CC)C[C@H](C)N(CC1CCCCCCC1)C(=O)CCCCOc1ccc2[nH]c(=O)ccc2c1` [Example 21], the values for the IC50 in the series with platelets (setting [3]) and in the series on platelets (setting [4]) were 5.4 µM and 3.2 µM, respectively. In addition, in the series with mongrel dogs, the “Maximum increase in heart rate (beats/min) (Administration amount = 30 µg/kg)” value came to 7 beats/min.

For `CCN(CC)C[C@H](CO)N(CC1CCCCCCC1)C(=O)CCCCOc1ccc2[nH]c(=O)ccc2c1` [Example 22], the IC50 in the series on platelets (setting [3]) was 1.2 µM; with platelets (setting [4]) it was 0.8 µM.

Turning to `CC(=O)NCCN(CC1CCCCCCC1)C(=O)CCCCOc1ccc2[nH]c(=O)ccc2c1` [Example 24], the values for the IC50 in the series on platelets (setting [3]) and in the series on platelets (setting [4]) were 2.2 µM and 1.3 µM, respectively.

As to `CCN(CCO)CCN(CC1CCCCCCC1)C(=O)CCCCOc1ccc2[nH]c(=O)ccc2c1` [Example 25], the IC50 in the series on platelets (setting [3]) is 2.1 µM; with platelets (setting [4]) it was 1.4 µM.

Turning to `C=CCN(CC)CCN(CC1CCCCCCC1)C(=O)CCCCOc1ccc2[nH]c(=O)ccc2c1` [Example 26], the IC50 in the series with platelets (setting [3]) was determined as 3.6 µM; with platelets (setting [4]), 1.3 µM.

On to `O=C(CCCCOc1ccc2[nH]c(=O)ccc2c1)N(CCS)CC1CCCCC1` [Example 44], for which the IC50 is 5 µM with platelets (setting [3]) and 3.6 µM in the series on platelets (setting [4]). For the same compound, in the series on mongrel dogs, the “Maximum increase in heart rate (beats/min) (Administration amount = 30 µg/kg)” value is recorded as 11 beats/min.

Consider `O=C(CCCCOc1ccc2[nH]c(=O)ccc2c1)N(CCSC1CCCCO1)CC1CCCCC1` (stereo not drawn) [Example 45], for which the IC50 in the series with platelets (setting [3]) and in the series with platelets (setting [4]) was 2.2 µM in each case.

As for `CSCCC(CO)N(CC1CCCCC1)C(=O)CCCCOc1ccc2[nH]c(=O)ccc2c1` (stereo not drawn) [Example 46], the IC50 turned out to be 1.1 µM in the series with platelets (setting [3]) and 0.53 µM with platelets (setting [4]).

As to `CSCCC(COC(C)=O)N(CC1CCCCC1)C(=O)CCCCOc1ccc2[nH]c(=O)ccc2c1` (stereo not drawn) [Example 47], the figures for the IC50 with platelets (setting [3]) and in the series with platelets (setting [4]) were 0.63 µM and 0.49 µM, respectively.

On to `O=C(CCCCOc1ccc2[nH]c(=O)ccc2c1)N(CCN1CCC(O)C1)CC1CCCCCCC1` (stereo not drawn) [Test compound 6, 6-[4-{N-cyclooctylmethyl-N-[2-(3-hydroxy-1-pyrrolidinyl)ethyl]aminocarbonyl}butoxy]carbostyril oxalate], for which the IC50 with platelets (setting [3]) came to 1.7 µM; in the series on platelets (setting [4]), 0.5 µM.

`O=C(CCCCOc1ccc2[nH]c(=O)ccc2c1)N(CCN1CCC(O)CC1)CC1CCCCCCC1` [Test compound 8, 6-[4-{N-cyclooctylmethyl-N-[2-(4-hydroxy-1-piperidinyl)ethyl]aminocarbonyl}butoxy]carbostyril]: the IC50 is 1.7 µM with platelets (setting [3]) and 0.7 µM in the series on platelets (setting [4]).

On to `CCN(CC)CCCN(CC1CCCCCCC1)C(=O)CCCCOc1ccc2[nH]c(=O)ccc2c1` [Test compound 17, 6-{4-[N-cyclooctylmethyl-N-(3-diethylaminopropyl)-aminocarbonyl]butoxy}carbostyril oxalate], for which the IC50 in the series with platelets (aggregation induced by ADP, final concentration 7.5 µM, listed as 28, oxalate, read-out: IC50 (µM) ADP) amounted to 2.8 µM; with platelets (aggregation induced by collagen, final concentration 20 µg/ml, listed as 28, oxalate, read-out: IC50 (µM) Collagen), 1.2 µM.

For the compound `CCN(CC)CCCCN(CC1CCCCCCC1)C(=O)CCCCOc1ccc2[nH]c(=O)ccc2c1.O=C(O)C(=O)O` [Test compound 18, 6-{4-[N-cyclooctylmethyl-N-(4-diethylaminobutyl)-aminocarbonyl]butoxy}carbostyril oxalate], the IC50 stood at 8.3 µM in the series with platelets (aggregation induced by ADP, final concentration 7.5 µM, listed as 29, oxalate, read-out: IC50 (µM) ADP) and 3.7 µM in the series on platelets (aggregation induced by collagen, final concentration 20 µg/ml, listed as 29, oxalate, read-out: IC50 (µM) Collagen). The “Maximum increase in heart rate (beats/min) (Administration amount = 30 µg/kg)” value with mongrel dogs turned out to be 2 beats/min.

Turning to `CCN(CC)CCN(CC1CCCCCCC1)C(=O)CCCCOc1ccc2c(c1)CCC(=O)N2` [Test compound 20, 6-{4-[N-cyclooctylmethyl-N-(2-diethylaminoethyl)-aminocarbonyl]butoxy}3,4-dihydrocarbostyril oxalate], the IC50 is 0.84 µM in the series on platelets (aggregation induced by ADP, final concentration 7.5 µM, listed as 34, oxalate, read-out: IC50 (µM) ADP) and 0.48 µM with platelets (aggregation induced by collagen, final concentration 20 µg/ml, listed as 34, oxalate, read-out: IC50 (µM) Collagen).

Consider `CC(=O)NCCN(CC1CCCCCCC1)C(=O)CCCCOc1ccc2[nH]c(=O)ccc2c1` [Test compound 24, 6-{4-[N-cyclooctylmethyl-N-(2-acetylaminoethyl)-aminocarbonyl]butoxy}carbostyril], for which the IC50 worked out at 1.9 µM in the series on platelets (aggregation induced by ADP, final concentration 7.5 µM, listed as 42, read-out: IC50 (µM) ADP) and 1.6 µM in the series on platelets (aggregation induced by collagen, final concentration 20 µg/ml, listed as 42, read-out: IC50 (µM) Collagen).

For orientation: IC50 means the concentration needed to halve the response being measured.
